{"source": "patent US9993494B2", "about": "“Compositions and methods for treating fibrotic disease” (eFFECTOR Therapeutics, Inc., priority 2014, dated 2018)", "test_system": "normal human lung fibroblasts", "experiment": "Ribosomal profiling: translational efficiency in TGFβ-treated fibroblasts", "assay_type": "cell-based", "settings": "TGFβ-treated fibroblasts", "in_short": "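Genome-wide RPF and total RNA libraries (ARTseq, RNA-Seq) were made from lysates of cycloheximide-treated, PBS-washed cells. After trimming and human-genome mapping, per-gene coding-region counts were compared between RPF and RNA for translational efficiency. Genes scoring low in either fraction were dropped.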"}
{"smiles": "COC(=O)[C@H]1[C@@H](O)[C@@]2(O)c3c(OC)cc(O[C@@H]4O[C@@H]([C@H](O)CO)CO[C@H]4OC)cc3O[C@@]2(c2ccc(OC)cc2)[C@@H]1c1ccccc1", "note": "[Silvestrol]", "values": [{"measurement": "renormalizing the translational profile of RPL9", "setting": "ENSG00000163682", "result": "− (− = <0.9)"}, {"measurement": "renormalizing the translational profile of RHOBTB3", "setting": "ENSG00000164292", "result": "− (− = <0.9)"}, {"measurement": "renormalizing the translational profile of HCN1", "setting": "ENSG00000164588", "result": "− (− = <0.9)"}, {"measurement": "renormalizing the translational profile of RPL36AL", "setting": "ENSG00000165502", "result": "− (− = <0.9)"}, {"measurement": "renormalizing the translational profile of RPL27A", "setting": "ENSG00000166441", "result": "− (− = <0.9)"}, {"measurement": "renormalizing the translational profile of RP11-382A20.3.1", "setting": "ENSG00000166503", "result": "− (− = <0.9)"}, {"measurement": "renormalizing the translational profile of ANKDD1A", "setting": "ENSG00000166839", "result": "− (− = <0.9)"}, {"measurement": "renormalizing the translational profile of RPL13", "setting": "ENSG00000167526", "result": "− (− = <0.9)"}, {"measurement": "renormalizing the translational profile of EEF2", "setting": "ENSG00000167658", "result": "− (− = <0.9)"}, {"measurement": "renormalizing the translational profile of CA5B", "setting": "ENSG00000169239", "result": "+ (+ = 0.9 to 1.5)"}, {"measurement": "renormalizing the translational profile of MURC", "setting": "ENSG00000170681", "result": "− (− = <0.9)"}, {"measurement": "renormalizing the translational profile of HTRA3", "setting": "ENSG00000170801", "result": "− (− = <0.9)"}, {"measurement": "renormalizing the translational profile of PDE7B", "setting": "ENSG00000171408", "result": "+ (+ = 0.9 to 1.5)"}, {"measurement": "renormalizing the translational profile of LPAR3", "setting": "ENSG00000171517", "result": "+ (+ = 0.9 to 1.5)"}, {"measurement": "renormalizing the translational profile of CTPS", "setting": "ENSG00000171793", "result": "− (− = <0.9)"}, {"measurement": "renormalizing the translational profile of QARS", "setting": "ENSG00000172053", "result": "− (− = <0.9)"}, {"measurement": "renormalizing the translational profile of RPL38", "setting": "ENSG00000172809", "result": "− (− = <0.9)"}, {"measurement": "renormalizing the translational profile of MRPL45", "setting": "ENSG00000174100", "result": "− (− = <0.9)"}, {"measurement": "renormalizing the translational profile of RPL4", "setting": "ENSG00000174444", "result": "− (− = <0.9)"}, {"measurement": "renormalizing the translational profile of RPL15", "setting": "ENSG00000174748", "result": "− (− = <0.9)"}, {"measurement": "renormalizing the translational profile of DES", "setting": "ENSG00000175084", "result": "− (− = <0.9)"}, {"measurement": "renormalizing the translational profile of EIF3F", "setting": "ENSG00000175390", "result": "− (− = <0.9)"}, {"measurement": "renormalizing the translational profile of CLCF1", "setting": "ENSG00000175505", "result": "+ (+ = 0.9 to 1.5)"}, {"measurement": "renormalizing the translational profile of AMIGO3", "setting": "ENSG00000176020", "result": "− (− = <0.9)"}, {"measurement": "renormalizing the translational profile of C14orf49", "setting": "ENSG00000176438", "result": "− (− = <0.9)"}, {"measurement": "renormalizing the translational profile of RPLP2", "setting": "ENSG00000177600", "result": "− (− = <0.9)"}, {"measurement": "renormalizing the translational profile of IMPDH2", "setting": "ENSG00000178035", "result": "− (− = <0.9)"}, {"measurement": "renormalizing the translational profile of DNAJC22", "setting": "ENSG00000178401", "result": "− (− = <0.9)"}, {"measurement": "renormalizing the translational profile of RPL35A", "setting": "ENSG00000182899", "result": "− (− = <0.9)"}, {"measurement": "renormalizing the translational profile of LENG9", "setting": "ENSG00000182909", "result": "+ (+ = 0.9 to 1.5)"}, {"measurement": "renormalizing the translational profile of C22orf32", "setting": "ENSG00000183172", "result": "− (− = <0.9)"}, {"measurement": "renormalizing the translational profile of NPW", "setting": "ENSG00000183971", "result": "− (− = <0.9)"}, {"measurement": "renormalizing the translational profile of PDE4B", "setting": "ENSG00000184588", "result": "+++ (+++ = >2.0)"}, {"measurement": "renormalizing the translational profile of ROBO2", "setting": "ENSG00000185008", "result": "− (− = <0.9)"}, {"measurement": "renormalizing the translational profile of PTCH1", "setting": "ENSG00000185920", "result": "− (− = <0.9)"}, {"measurement": "renormalizing the translational profile of POLR1D", "setting": "ENSG00000186184", "result": "− (− = <0.9)"}, {"measurement": "renormalizing the translational profile of DYNC2H1", "setting": "ENSG00000187240", "result": "++ (++ = 1.5 to 2.0)"}, {"measurement": "renormalizing the translational profile of RPL14", "setting": "ENSG00000188846", "result": "− (− = <0.9)"}, {"measurement": "renormalizing the translational profile of LRRK2", "setting": "ENSG00000188906", "result": "− (− = <0.9)"}, {"measurement": "renormalizing the translational profile of NACA", "setting": "ENSG00000196531", "result": "− (− = <0.9)"}, {"measurement": "renormalizing the translational profile of LAMB3", "setting": "ENSG00000196878", "result": "+ (+ = 0.9 to 1.5)"}, {"measurement": "renormalizing the translational profile of PCBP2", "setting": "ENSG00000197111", "result": "+ (+ = 0.9 to 1.5)"}, {"measurement": "renormalizing the translational profile of MAP3K5", "setting": "ENSG00000197442", "result": "− (− = <0.9)"}, {"measurement": "renormalizing the translational profile of RPL37A", "setting": "ENSG00000197756", "result": "− (− = <0.9)"}, {"measurement": "renormalizing the translational profile of RPL12", "setting": "ENSG00000197958", "result": "− (− = <0.9)"}, {"measurement": "renormalizing the translational profile of LPAR1", "setting": "ENSG00000198121", "result": "− (− = <0.9)"}, {"measurement": "renormalizing the translational profile of RPL23A", "setting": "ENSG00000198242", "result": "− (− = <0.9)"}, {"measurement": "renormalizing the translational profile of RPL10A", "setting": "ENSG00000198755", "result": "− (− = <0.9)"}, {"measurement": "renormalizing the translational profile of RPL39", "setting": "ENSG00000198918", "result": "− (− = <0.9)"}, {"measurement": "renormalizing the translational profile of CARD16", "setting": "ENSG00000204397", "result": "+ (+ = 0.9 to 1.5)"}, {"measurement": "renormalizing the translational profile of MICA", "setting": "ENSG00000204520", "result": "− (− = <0.9)"}, {"measurement": "renormalizing the translational profile of GNB2L1", "setting": "ENSG00000204628", "result": "− (− = <0.9)"}, {"measurement": "renormalizing the translational profile of RPL17", "setting": "ENSG00000215472", "result": "− (− = <0.9)"}, {"measurement": "renormalizing the translational profile of RPL41", "setting": "ENSG00000229117", "result": "− (− = <0.9)"}, {"measurement": "renormalizing the translational profile of ARPC1A", "setting": "ENSG00000241685", "result": "− (− = <0.9)"}, {"measurement": "renormalizing the translational profile of EEF1G", "setting": "ENSG00000254772", "result": "− (− = <0.9)"}, {"measurement": "number of genes whose translational efficiency was uniquely modulated by the compound", "setting": "duplicate ribosomal profiles", "result": 26, "unit": "genes"}, {"measurement": "effect in renormalizing the translational profile of the gene", "setting": "gene RPS2 (ENSG00000140988)", "result": "− (− = <0.9)"}, {"measurement": "effect in renormalizing the translational profile of the gene", "setting": "gene RPS3 (ENSG00000149273)", "result": "− (− = <0.9)"}, {"measurement": "effect in renormalizing the translational profile of the gene", "setting": "gene RPS3A (ENSG00000145425)", "result": "− (− = <0.9)"}, {"measurement": "effect in renormalizing the translational profile of the gene", "setting": "gene RPS4X (ENSG00000198034)", "result": "− (− = <0.9)"}, {"measurement": "effect in renormalizing the translational profile of the gene", "setting": "gene RPS4Y1 (ENSG00000129824)", "result": "− (− = <0.9)"}, {"measurement": "effect in renormalizing the translational profile of the gene", "setting": "gene RPS5 (ENSG00000083845)", "result": "− (− = <0.9)"}, {"measurement": "effect in renormalizing the translational profile of the gene", "setting": "gene RPS6 (ENSG00000137154)", "result": "− (− = <0.9)"}]}
